According to US6441030B1, “3-phenyl-pyrones” (Bayer Aktiengesellschaft, priority 1998, dated 2002):

Columns and labels:
Type in all cases: in vivo
[1] = tested on: larvae of the mustard beetle (Phaedon cochleariae); assay: Phaedon larvae test (Example C); conditions: active compound concentration of 0.1% in the preparation; cabbage leaves (Brassica oleracea) dipped
Experimental: Phaedon Larvae Test Solvent: 7 parts by weight of dimethylformamide Emulsifier: 1 part by weight of alkylaryl polyglycol ether […] Cabbage leaves (Brassica oleracea) are treated by being dipped into the preparation of active compound of the desired concentration and are populated with larvae of the mustard beetle (Phaedon cochleariae) while the leaves are still moist.

Myzus persicae = assay: Critical concentration test/root-systemic action, Myzus persicae (Example H); conditions: active compound concentration of 1.25 ppm in the soil; broad beans; populated after 7 days, evaluated after a further 7 days
Experimental: (§1) Critical Concentration Test/Root-systemic Action Test insect: Myzus persicae Solvent: 4 parts by weight of dimethylformamide Emulsifier: 1 part by weight of alkylaryl polyglycol ether To prepare a suitable preparation of active compound, 1 part by weight of active compound is mixed with the stated amount of solvent, the stated amount of emulsifier is added and the concentrate is diluted with water to the desired concentration. The preparation of active compound is mixed intimately with the soil. The concentration of the active compound in the preparation is virtually immaterial, only the amount by weight of active compound per volume unit of soil, which is stated in ppm (=mg/ml), being decisive. The treated soil is filled into 250 ml pots and pre-germinated broad beans are planted in these. Thus, the active compound can be taken up by the plant roots from the soil and then transported into the leaves. To assess the root-systemic effect, the leaves are populated with the abovementioned test animals after 7 days. After a further 7 days, evaluation is carried out by counting or estimating the dead animals. The root-systemic action of the active compound is derived from the number of animals killed. It is 100% if all test animals have been killed and 0% when the number of test insects that are still alive is the same as for the untreated control.

Aphis fabae = assay: Critical concentration test/root-systemic action, Aphis fabae (Example G); conditions: active compound concentration of 1.25 ppm in the soil; broad beans; populated after 7 days, evaluated after a further 7 days
Experimental: as §1, with “Aphis fabae” for “Myzus persicae”, “(=mg/l),” for “(=mg/ml),”

Cc1cc(Cl)ccc1-c1c(O)c(C)c(-c2ccccn2)oc1=O [Example 1, 3-(2-methyl-4-chloro-phenyl)-4-hydroxy-5-methyl-6-(pyrid-2-yl)-pyrone]
100 per cent: efficacy (kill in %) [1] | efficacy (root-systemic action) (Myzus persicae) | efficacy (root-systemic action) (Aphis fabae)
